Measurements as given in patent US5169863A, “Hypersphyxia-causing methods” (K.K. Ueno Seiyaku Oyo Kenkyujo, priority 1988, dated 1992).

What was measured:
[1] = progressing a breath (change rate of breath rate); format: in vivo, Wister male rats; conditions: tail vein, rats; for change in vivo at 1 mg/kg: Rattus norvegicus, iv
Procedure: Wister male rats (8 weeks old) were applied to anesthesia by intraperitoneal administration with 1.25 g/kg of urethane. A pick-up for breath was fixed on a top of a rat's nose, and the breath curve was recorded on a polygraph while the breath rate was counted with a tachometer.
Each test compound was dissolved in ethanol and administered to rats through a tale vein in 1 mg/kg as diluted with Ringer's solution just before use. The maximum concentration of ethanol was 2 percent. Ringers solution containing ethanol but not containing test compound was administered at every experiment as a control. The change rates (%) of the breath rate before and after administration were determined, and evaluated as progressing activity of breath.

[2] = changing rate of blood pressure and heart rate by intravenous injection in anesthetized rats; format: in vivo, Wister male rats; conditions: for change in vivo at 1 mg/kg: Rattus norvegicus; for changing rate (%) of blood pressure / changing rate (%) of heart rate: Table 2
Procedure: (blood pressure, heart rate increasing action by intravenous injection) Wister male rats (8 weeks old) were used as test animals. The rats were applied to anesthesia by intraperitoneal administration with 1.25 g/kg of urethane. The blood pressure was determined by inserting a polyethylene tube into a femoral artery, which was connected with a pressure transducer. The heart rate was determined from R wave of electrocardiograms (ECG) induced by standard limb lead II with a tachometer. Each test compound was dissolved in ethanol and intravenously administered to rats in 1 mg/kg diluted with Ringer's solution just before use. The maximum concentration of ethanol was 2 percent. An ethanol-containing Ringer without any test compound was used as a control to confirm the influence of the ethanol in each experiment. Each changing rate (%) in the blood pressure and heart rate before and after administration was determined, and the average of 3-4 experiments was shown in Table 1. Changing rates of blood pressure and heart rate were determined in the same manner as described in Example 1 except that the test compounds 60, 61 and 62 were used in different concentrations instead of the test compounds 1-55.

[3] = 1 (mg/kg), Table 1, read-out: changing rate of blood pressure
[4] = 1 (mg/kg), Table 1, read-out: changing rate of heart rate

Row | Compound | change in vivo at 1 mg/kg [1] | change in vivo at 1 mg/kg [2, 3] | change in vivo at 1 mg/kg [2, 4] | further results
1 | CCCCCC(=O)CC[C@H]1[C@H](O)CC(=O)[C@@H]1CC(=O)CCCCC(=O)OCC (relative stereo) [Compound 8, (±) 13,14-dihydro-6,15-diketo-PGE1 ethyl ester] | 65% | 8% | – | –
2 | CCCCCC(=O)CC[C@H]1[C@H](O)CC(=O)[C@@H]1CCCCCCC(=O)O [Compound 1, 13,14-dihydro-15-keto-PGE1, reference compound] | 34% | -6% | 6% | –
3 | CCCCCC(=O)CC[C@H]1[C@H](O)CC(=O)[C@@H]1CCCCC=CC(=O)OC [Compound 3, 13,14-dihydro-15-keto-Δ^2 -PGE1 methyl ester] | – | 32% | 43% | –
4 | CCCCCCCC(=O)CC[C@H]1[C@H](O)CC(=O)[C@@H]1CCCCCCC(=O)OC [Compound 4, 13,14-dihydro-15-keto-20-ethyl-PGE1 methy ester] | 48% | 6% | 33% | –
5 | CCCCCC(=O)CC[C@H]1[C@H](O)CC(=O)[C@@H]1CC(=O)CCCCC(=O)O [Compound 5, 13,14-dihydro-6,15-diketo-PGE1, reference compound] | 4% | -4% | 0% | –
6 | CCCCCC(=O)CC[C@H]1[C@H](O)CC(=O)[C@@H]1CC(=O)CCCCC(=O)OC [Compound 6, 13,14-dihydro-6,15-diketo-PGE1 methyl ester] | 21% | 3% | 9% | –
7 | CCCCCC(=O)CC[C@H]1[C@H](O)CC(=O)[C@@H]1CC(=O)CCCCC(=O)OCCCC [Compound 9, 13,14-dihydro-6,15-diketo-PGE1 n-butyl ester] | 26% | 2% | 26% | –
8 | CCCCC(C)C(=O)CC[C@H]1[C@H](O)CC(=O)[C@@H]1CC(=O)CCCCC(=O)OC (some centres unmarked) [Compound 10, 13,14-dihydro-6,15-diketo-16R,S-methyl-PGE1 methyl ester] | 63% | 22% | 37% | –
9 | CCCCC(C)C(=O)CC[C@H]1[C@H](O)CC(=O)[C@@H]1CC(=O)CCCCC(=O)OCC (some centres unmarked) [Compound 11, 13,14-dihydro-6,15-diketo-16R,S-methyl-PGE1 ethyl ester] | 34% | 23% | 18% | –
10 | CCCCC(C)(C)C(=O)CC[C@H]1[C@H](O)CC(=O)[C@@H]1CC(=O)CCCCC(=O)OCC [Compound 12, 13,14-dihydro-6,15-diketo-16,16-dimethyl-PGE1 ethyl ester] | 44% | 17% | 38% | –
11 | CCCCC(F)C(=O)CC[C@H]1[C@H](O)CC(=O)[C@@H]1CC(=O)CCCCC(=O)OCC (some centres unmarked) [Compound 13, 13,14-dihydro-6,15-diketo-16R,S-fluoro-PGE1 ethyl ester] | 53% | 11% | 20% | –
12 | COC(=O)CCCCC(=O)C[C@H]1C(=O)C[C@@H](O)[C@@H]1CCC(=O)CCCC(C)C [Compound 14, 13,14-dihydro-6,15-diketo-19-methyl-PGE1 methyl ester] | 33% | 12% | 22% | –
13 | COC(=O)CCCCC(=O)C[C@H]1C(=O)C[C@@H](CO)[C@@H]1CCC(=O)CCCC(C)C [Compound 16, 13,14-dihydro-6,15-diketo-11-dehydroxy-11R-hydroxymethyl-19-methyl-PGE1 methyl ester] | – | 26% | 25% | –
14 | CCCCCC(=O)CC[C@H]1[C@H](C)CC(=O)[C@@H]1CC(=O)CCCCC(=O)OC [Compound 17, 13,14-dihydro-6,15-diketo-11-dehydroxy-11R-methyl-PGE1 methyl ester] | – | 46% | 58% | –
15 | CCCCC(F)C(=O)CC[C@H]1[C@H](C)CC(=O)[C@@H]1CC(=O)CCCCC(=O)OCC (stereo partly drawn) [Compound 19, 13,14-dihydro-6,15-diketo-16R,S-fluoro-11R-dehydroxy-11R-methyl-PGE1 ethyl ester] | – | 45% | 51% | –
16 | CCCCCC(=O)CC[C@H]1[C@H](O)CC(=O)[C@@H]1C/C=C\CCCC(=O)O [Compound 20, 13,14-dihydro-15-keto-PGE2, reference compound] | 12% | -15% | 0% | blood pressure effect (in words) ([2]; Example 1 conclusion): blood pressure decreasing effect
17 | CCCCCC(=O)CC[C@H]1[C@H](O)CC(=O)[C@@H]1C/C=C\CCCC(=O)OCCC [Compound 23, 13,14-dihydro-15-keto-PGE2 n-propyl ester] | 37% | 5% | 4% | –
18 | CCCCCC(=O)CC[C@H]1[C@H](O)CC(=O)[C@@H]1C/C=C\CCCC(=O)OCCCC [Compound 24, 13,14-dihydro-15-keto-PGE2 n-butyl ester] | 41% | 5% | 5% | –
19 | CCCCCC(=O)CC[C@H]1[C@H](O)CC(=O)[C@@H]1C/C=C\CCCC(=O)OCc1ccccc1 [Compound 25, 13,14-dihydro-15-keto-PGE2 benzyl ester] | 22% | 2% | 5% | –
20 | CCCCCC(=O)CC[C@H]1[C@H](O)CC(=O)[C@@H]1C/C=C\CCCC(=O)OCCO [Compound 26, 13,14-dihydro-15-keto-PGE2 hydroxyethyl ester] | – | – | – | progressing activity % of breath ([1]; 1 mg/kg): +22%; changing rate of blood pressure ([2]; 0.2, Table 1): 0%; changing rate of heart rate ([2]; 0.2, Table 1): 0%; changing rate of blood pressure ([2]; 0.5, Table 1): 0%; changing rate of heart rate ([2]; 0.5, Table 1): 0%; changing rate of blood pressure ([2]; 1 (mg/kg), Table 1): +2%; changing rate of heart rate ([2]; 1 (mg/kg), Table 1): +7%
21 | CCCCCC(F)C(=O)CC[C@H]1[C@H](O)CC(=O)[C@@H]1C/C=C\CCCC(=O)OC (some centres unmarked) [Compound 39, 13,14-dihydro-15-keto-16R,S-fluoro-20-methylPGE2 methyl ester] | – | 20% | 47% | –
22 | COCCCCC(C)(C)C(=O)CC[C@H]1[C@H](O)CC(=O)[C@@H]1C/C=C\CCCC(=O)OC [Compound 48, 13,14-dihydro-15-keto-16,16-dimethyl-20-methoxy-PGE2 methyl ester] | – | 15% | 30% | –
23 | CCCCCCCC(=O)CC[C@H]1[C@H](O)CC(=O)[C@@H]1C/C=C\CCCC(=O)OCC [Compound 52, 13,14-dihydro-15-keto-20-ethyl-PGE2 ethyl ester] | – | 13% | 0% | –
24 | CCCCCCCC(=O)CC[C@H]1[C@H](C)CC(=O)[C@@H]1C/C=C\CCCC(=O)OC [Compound 53, 13,14-dihydro-15-keto-20-ethyl-11-dehydroxy-11R-methyl-PGE2 methyl ester] | – | 17% | 20% | –
25 | CCCCCCCCC(=O)CC[C@H]1[C@H](O)CC(=O)[C@@H]1C/C=C\CCCC(=O)OC [Compound 54, 13,14-dihydro-15-keto-20-n-propyl-PGE2 methyl ester] | – | 18% | 18% | –
26 | CCCCC(F)C(=O)/C=C/[C@H]1[C@H](O)CC(=O)[C@@H]1C/C=C\CCCC(=O)OC (some centres unmarked) [Compound 55, 15-keto-16R,S-fluoro-PGE2 methyl ester] | – | 31% | 58% | –
27 | CCCCC[C@H](O)/C=C/[C@H]1[C@H](O)CC(=O)[C@@H]1CCCCCCC(=O)O [Compound 56, PGE1, reference compound] | – | -54% | 10% | –
28 | CCCCCCC(=O)CC[C@H]1[C@H](O)CC(=O)[C@@H]1CCCCCCC(=O)OC [Compound 60, 13,14-dihydro-15-keto-20-methyl-PGE1 methyl ester] | – | – | – | changing rate (%) of blood pressure ([2]; 0.1 mg/kg): +17%; changing rate (%) of heart rate ([2]; 0.1 mg/kg): +14%; changing rate (%) of blood pressure ([2]; 1 mg/kg): +13%; changing rate (%) of heart rate ([2]; 1 mg/kg): +38%
29 | CCCCC(F)(F)C(=O)CC[C@H]1[C@H](O)CC(=O)[C@@H]1C/C=C\CCCC(=O)OC [Compound 61, 13,14-dihydro-15-keto-16,16-difluoro-PGE2 methyl ester] | – | – | – | changing rate (%) of blood pressure ([2]; 0.01 mg/kg): +13%; changing rate (%) of heart rate ([2]; 0.01 mg/kg): +14%; changing rate (%) of blood pressure ([2]; 0.1 mg/kg): +15%; changing rate (%) of heart rate ([2]; 0.1 mg/kg): +30%; changing rate (%) of blood pressure ([2]; 1 mg/kg): +27%; changing rate (%) of heart rate ([2]; 1 mg/kg): +26%
30 | CCOC(=O)CCCCC(=O)C[C@H]1C(=O)C[C@@H](O)[C@@H]1CCC(=O)CCC(C)CC (some centres unmarked) [Compound 62, 13,14-dihydro-6,15-diketo-18-methyl-PGE1 ethyl ester] | – | – | – | changing rate (%) of heart rate ([2]; 0.1 mg/kg): +6%; changing rate (%) of heart rate ([2]; 1 mg/kg): +13%
